The test system of data set [1] is human keratinocytes (HaCaT). Description: Cell survival assay (Alamar blue), keratinocytes. It counts as cell-based. The settings on record: 24 h pre-incubation, Supplementary Figure S2.
The test system of data set [2] is delayed (dark) CPDs (dCPDs) in Mel-a cells. In words: dCPD assessment by DNA ELISA post ssUV, Mel-a. It is filed as cell-based, mouse. The settings on record: for Inhibition of delayed CPDs (dCPDs): Mel-a, 50 µg/mL, 24–36 h preincubation, 0.5 to 4 h post ssUV, Figure 4C. The source says: For UV exposures, we used a “SOL-UV6 ultraviolet solar simulator” from Newport irradiators. It is equipped with a Xenon arc lamp where the output is varied using the integrated variable attenuator aperture, which provides the ability to vary the output from 10% to 100% of the maximum available solar constants. The output spectrum is flat from 320 nm to 400 nm and no values are below 300 nm. This is abbreviated as “ssUV” for “solar-simulated UV” throughout the text. Various cell types seeded at ~50% confluency, were treated with the AZ and analogs at concentrations mentioned in the data figures for 24–h. Cells at ~80–90% confluency (untreated controls), were washed twice with PBS and exposed to 18 kJ/m^2 of ssUV in minimal amount of PBS (ex. 2 mL PBS in a 60 mm cell culture dish) without any dish lid in place. […] The ssUV apparatus was monitored almost daily using UV meters for any emissions below 300 nm. The dose was decided based upon the 80–90% cell survival post UV exposure. After exposure, one time point was collected immediately to assess iCPDs, whereas more dishes were incubated in cell culture medium, inside the cell culture incubator, for various time points to be collected post UV to assess dCPDs. For dCPD induction, it is important that the cell culture incubator is not opened for at least 30 min (the first time point post UV) to avoid possible interference from the CO2/O2 ratio, which will be altered upon opening the incubator doors. Cells were collected by scraping and washed once with PBS, which was followed by DNA isolation using a Quick DNA miniprep Kit (Cat. D3024, Zymo Research, Irvine, CA, USA). CPDs were assessed using our previously established DNA ELISA protocols. In brief, ELISA was performed using mouse monoclonal Anti-CPD (Cat. CAC-NM-DND-001, Clone TDM-2, CosmoBio, Inc., Carlsbad, CA, USA). […] A measure of 50 µL of 2M H2SO4 was used to stop the reaction as soon as the color developed (5–10 min incubation in substrate), and OD was measured at 490 nm using a Synergy-2 multimode microplate reader (BioTek, Winooski, VT, USA).

Data set [3] concerns melanin in Mel-a cells. Description: Melanin amount in melanocytes cultured in varied tyrosine. It is filed as cell-based. To be noted: 50 µg/mL; for Cell death on longer incubation: 2–3 weeks incubation. The method, then:
The amino acid tyrosine is essential for melanin synthesis, and it is added to the OptiMem medium at a proprietary concentration by ThermoFisher. Assuming this concentration to be “100% tyrosine”, we purchased the “custom-prepared, tyrosine-free” medium from ThermoFisher. This medium lacked tyrosine or its precursors, which include L-tyrosine, L-tyrosine-2Na-2H2O, L-tyrosine-Di-sodium salt, Hypoxanthine, and Sodium Hypoxanthine. Mel-a (pigmented mouse melanocyte) cells were cultured in regular cell culture medium containing 100% tyrosine, and in medium containing 20%, 4%, or 0% of the total tyrosine amount. This was achieved by diluting the regular OptiMem with the one containing no tyrosine (tyrosine-free, 0% tyrosine). […] Since the cells cultured in 0%-tyrosine medium lost their pigment over time (Figure 5) and the cell pellets were almost white or opaque in color, we assumed that the minimal amount of tyrosine from the horse serum used in the cell culture medium was not sufficient for melanin synthesis. To estimate the amount of melanin, 3 × 10^6–5 × 10^6 cells were lysed in 1M sodium hydroxide (NaOH) by heating them at 100 °C for 1–2 h, which was followed by a 10-min spin at 14,000 rpm at room temperature to remove any cell debris. Absorbance of the supernatant was recorded using the supernatant in a 96-well plate in triplicates from each sample, at 460–490 nm. Synthetic melanin (Cat. M0418, Sigma) was dissolved in methanol and used as a positive control to generate standard curves to estimate the melanin amount in cell lysates. The number of cells in each pellet was used as a normalization factor for each experimental condition. In a complementary experiment, cells were first bleached out of melanin completely by culturing them in tyrosine-free medium, followed by 100/20/4/0% tyrosine (not shown) treatment. This seemed to be cytotoxic, comparatively more so in 100% tyrosine, probably owing to the toxicity of the sudden rush of melanin derivatives and the oxidative stress generated during melanin synthesis.

Data set [4] deals with melanocytes. The arrangement: method as in PMID 31538664. To be noted: 25 µg/mL; cited from earlier work.
The test system of data set [5] is MMP-1. The arrangement: method as in PMID 31465741. To be noted: in vitro assays; cited from earlier work.
Data set [6] concerns MMP-3. The arrangement: method as in PMID 31465741. The settings on record: in vitro assays; cited from earlier work.
Data set [7] relates to MMP-12. Details: method as in PMID 31465741. To be noted: in vitro assays; cited from earlier work.

Consider two compounds from publication PMC9952391, “The Role of Acetyl Zingerone and Its Derivatives in Inhibiting UV-Induced, Incident, and Delayed Cyclobutane Pyrimidine Dimers” (Antioxidants, 2023).

Each structure is given as a SMILES string. Values joined by “and” are separate entries in the source; they are usually repeats but may differ in a detail not shown here. Identical values can stand only once.

For the compound `COc1cc(CC(C(C)=O)C(C)=O)ccc1O` [AZ, 3-(4-Hydroxy-3-methoxybenzyl)-pentane-2,4-dione], the “Cytotoxicity at 1000 µg/ml” value in data set [1] is given as “cytotoxic”. In data set [2], the “Inhibition of delayed CPDs (dCPDs)” value is on record as “inhibited dCPD formation almost completely”. Also, in data set [3] (different tyrosine variations), the “Impact on melanin” value is reported as “did not show any impact”. Besides, the “Cell death on longer incubation” value in data set [3] is 10–15%. In data set [4], the “Effect on iCPDs” value is listed as “without any significant effect” and the “Inhibition of delayed or dark CPDs (dCPDs)” value is “inhibition”. Further, the “Inhibition of MMP-1 activity” value in data set [5] is “inhibited”. Further, the “Inhibition of MMP-3 activity” value in data set [6] was “inhibited”. The “Inhibition of MMP-12 activity” value in data set [7] was “inhibited”.

On to `COc1ccc(CC(C(C)=O)C(C)=O)cc1` [MBPD, 3-(4-Methoxy-benzyl)-pentane-2,4-dione], for which the “Inhibition of delayed CPDs (dCPDs)” value in data set [2] is “abrogated the delayed CPDs completely”. For the same compound, the “Inhibition of total CPDs (iCPDs + dCPDs)” value in data set [2] (extrapolated from 50% iCPD reduction and complete dCPD blockade, pigmented melanocytes) is ~ 80% and 70–80%. The “Reduction in melanin (pigmentation)” value in data set [3] (20% or less tyrosine, ~2–3 weeks) is > 50%. Also, the “Reduction in melanin concentration” value in data set [3] (100% tyrosine, ~2–3 weeks) is given as ~ 25%. Further, in data set [3], the “Cell death on longer incubation” value is on record as 10–15%.
